According to patent US20050042674A9, “Common ligand mimics: thiazolidinediones and rhodanines” (priority 2002, published 2005):

Assays:
[1] = target: dihydrodipicolinate reductase (DHPR) (Escherichia coli, UniProt P04036); experiment: DHPR kinetic assay, spectrophotometric oxidation of NADPH at 340 nm; type: biochemical; conditions: Cibacron Blue at 2.58 μM; read-out: inhibition of DHPR, positive control
Protocol: DHPR was diluted in 10 mM HEPES at a pH of 7.4. DHPS (dihydrodipicolinate synthase) was not diluted and was stored in eppindorf tubes.
The L-ASA (L-aspartate semialdehyde) solution was prepared in the following manner. […] stock solution of ASA was prepared. 100 μl of the ASA stock solution was mixed with 150 μl of concentrated NaHCO3 and 375 μl of H2O. For use in the assay, 28.8 mM L-ASA was equal to 625 μl of the solution. The L-ASA stock solution was kept at a temperature of −20° C. After dilution, the pH of the 28.8 mM solution was checked and maintained between 1 and 2.
(§1) The solution for background detection was a 945 μl solution containing 0.1 HEPES (pH 7.8), 1 mM pyruvate, 6 μM NADPH, 40 μM L-ASA, and 7 μl of 1 mg/ml DHPS at 25° C. in the volumes provided above. The sample solution was then mixed and incubated for 10 minutes. Next, 500 nM solutions of the inhibitors and enough DMSO to provide a final DMSO concentration of 5% of the total assay volume were added. The solution was mixed and incubated for an additional 6 minutes.
In DHPR samples, 5 μl of the diluted DHPR enzyme were added. The sample was mixed for 20 seconds and then the reaction was run for 10 minutes. […] Reading of the samples was continued until 300 seconds. […] The substrate was kept at a level at least 10 times the Km. The final concentration of L-ASA was about 1 mM.

[2] = target: T1, lactate dehydrogenase (LDH) (Oryctolagus cuniculus, UniProt P13491); experiment: LDH kinetic assay, spectrophotometric oxidation of NADH at 340 nm; type: biochemical, Rabbit; conditions: Cibacron Blue at 10.3 μM; read-out: inhibition of LDH, positive control
T1 construct: LDH from Rabbit Muscle; from tissue; host or cells: rabbit muscle
Protocol: Solutions of 100 μl of the inhibitors in DMSO were prepared to provide a final DMSO concentration of 5% of the total assay volume. […] The reaction was then initiated with 10 μl of LDH from Rabbit Muscle (0.5 μ/ml; 1:2000 dilution of 1.0 mg/ml). […] Reading of the samples was continued until 300 seconds. […] The substrate was kept at a level at least 10 times the Km.

[3] = target: 1-deoxy-D-xylulose-5-phosphate reductase (DOXPR) (Escherichia coli, UniProt P45568); experiment: DOXPR kinetic assay, spectrophotometric oxidation of NADPH at 340 nm; type: biochemical; conditions: Cibacron Blue at 10.32 μM; read-out: inhibition of DOXPR, positive control
Protocol: DOXPR was diluted in 10 mM HEPES at a pH of 7.4.
Solutions of the inhibitors in DMSO were prepared to provide a final DMSO concentration of 5% of the total assay volume. […] The oxidation reaction was then initiated with 10 μl of DOXP reductoisomerase (10 μg/ml). […] Reading of the samples was continued until 300 seconds. […] The substrate was kept at a level at least 10 times the Km.

E. coli DHPR = E. coli DHPR (Escherichia coli, UniProt P04036); experiment: Screening of bi-ligands on DHPR, kinetic oxidation of NADPH (Example 38); type: biochemical; conditions: Cibacron Blue at 2.58 μM, read-out: inhibition of DHPR, positive control
Protocol: Bi-ligands were produced by the methods of Examples 14 to 18. The bi-ligands were screened for binding to E. coli DHPR. The bi-ligands were screened using a kinetic protocol that spectrophotometrically evaluates oxidation of NADPH.
Dilution of DHPR was prepared in 10 mM HEPES at a pH of 7.4. DHPS was not diluted and was stored in eppindorf tubes.
The L-ASA solution was prepared in the following manner. […] stock solution of ASA was prepared. 100 μl of the ASA stock was mixed with 150 μl of concentrated NaHCO3 and 375 μl of H2O. For use in the assay, 28.8 mM L-ASA equal 625 μl of the solution. The L-ASA stock solution was kept at a temperature of −20° C. After dilution, the pH of the 28.8 mM solution was checked and maintained between 1 and 2.
as §1
In DHPR samples, 5 μl of the diluted DHPR enzyme were added. […] Reading of the samples was continued until 300 seconds. […]

Sequence of 1-deoxy-D-xylulose-5-phosphate reductase (DOXPR) (P45568 whole entry): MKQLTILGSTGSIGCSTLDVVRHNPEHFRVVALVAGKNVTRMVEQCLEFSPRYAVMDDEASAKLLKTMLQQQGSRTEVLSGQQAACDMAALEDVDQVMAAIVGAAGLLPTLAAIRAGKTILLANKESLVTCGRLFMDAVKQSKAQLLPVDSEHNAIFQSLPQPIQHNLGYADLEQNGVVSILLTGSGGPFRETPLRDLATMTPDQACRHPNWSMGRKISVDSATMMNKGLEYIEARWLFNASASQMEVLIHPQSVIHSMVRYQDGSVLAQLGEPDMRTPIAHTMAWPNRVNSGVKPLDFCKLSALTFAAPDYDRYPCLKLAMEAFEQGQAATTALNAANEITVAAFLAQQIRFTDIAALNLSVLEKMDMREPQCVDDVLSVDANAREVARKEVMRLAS
Sequence of E. coli DHPR (P04036 whole entry): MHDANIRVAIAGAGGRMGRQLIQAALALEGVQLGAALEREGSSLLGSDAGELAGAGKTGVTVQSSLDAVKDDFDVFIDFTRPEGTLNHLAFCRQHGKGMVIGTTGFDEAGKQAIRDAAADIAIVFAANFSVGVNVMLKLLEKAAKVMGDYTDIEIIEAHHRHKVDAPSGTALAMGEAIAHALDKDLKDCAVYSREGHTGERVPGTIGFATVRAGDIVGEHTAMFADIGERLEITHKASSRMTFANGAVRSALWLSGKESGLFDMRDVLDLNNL
Sequence of dihydrodipicolinate reductase (DHPR) (P04036 whole entry): as above

Structure (SMILES): Nc1c(S(=O)(=O)O)cc(Nc2ccc(Nc3nc(Cl)nc(Nc4ccccc4S(=O)(=O)O)n3)c(S(=O)(=O)O)c2)c2c1C(=O)c1ccccc1C2=O [Cibacron Blue, reference compound]
- inhibition at 2.58 µM [1]: 70 to 80%
- inhibition at 10.3 µM [2]: 50 to 70%
- inhibition at 10.32 µM [3]: 70 to 80%
- inhibition at 2.58 µM (E. coli DHPR): 70 to 80%
